From US8633177B2, “Nitroxyl (HNO) releasing compounds and uses thereof in treating diseases” (The United States of America, as represented by the …, priority 2010, dated 2014)
Like-named read-outs stand apart in the source and are kept apart here.

Columns and labels:
[1] = Spontaneous decomposition kinetics by UV spectrophotometry in PBS; type: physicochemical
Experimental: (§1) The rate constants of decomposition were measured spectrophotometrically by monitoring the decrease in absorbance of peaks at ˜240-250 nm characteristic of the diazeniumdiolate functionality. The hydrolysis medium consisted of the metal chelator diethylenetriaminepentaacetic acid (DTPA, 50 μM) in calcium- and magnesium-free Dulbecco's phosphate-buffered saline (PBS, pH 7.4). UV-visible spectroscopy was performed with a Hewlett-Packard 8453 diode-array spectrophotometer equipped with Agilent 89090A thermostat set to 37° C. The spectrophotometer was blanked after warming the cuvette containing buffer at the appropriate pH in the instrument heat block for 5 min. For esterase-containing reactions, porcine liver esterase (20 μL; Sigma; suspension in 3.2 M (NH4)2SO4, pH 8) was added to the reaction buffer before blanking. Upon addition of IPA/NO (1) or AcOM-IPA/NO (2) (≦10 μL of stock), the cuvette was capped and inverted to mix. Spectra were collected at 0.5- to 60-s intervals for time periods of 2-120 min or until A∞<0.05. Kinetic analysis was performed by fitting the data to an exponential decay (A=ΔAe^−kt+A∞) using KaleidaGraph v.3.1.
To gain insight into the mechanistic origins of this unexpected finding, the pH/rate profiles of the diazeniumdiolates 1 and 2 were explored. As previously established and shown in FIG. 3A, hydrolysis of 1 slowed as the pH was increased from 3 to 10, with a small increase in rate thereafter. This was the opposite of the results with 2, whose hydrolysis rate was essentially first order in hydroxide ion concentration between pH 5 and 11 (FIG. 3B).

porcine liver esterase = test: Esterase-catalyzed hydrolysis followed by UV spectrophotometry; type: in vitro ADME; conditions: pH 7.4
Experimental: FIGS. 4A-C are graphs illustrating spontaneous hydrolysis (FIGS. 4A and 4B) and esterase-catalyzed hydrolysis (FIG. 4C) of 2 in an embodiment of the invention. In FIG. 4A, spectra were collected every 60 s (10-min intervals shown) after dissolving 2 in PBS (pH 7.4) at 37° C., and only loss of the parent compound was observed. In FIG. 4B, the pH was elevated to 12, and scans were collected every 0.5 s (through 2.5 s and 3.5, 5.5, 9.5, and 54.5 shown). In FIG. 4C, porcine liver esterase (20 μL in 3 mL) was added (pH 7.4), and spectra were collected every 10 s. Hydrolysis of 2 (λmax 236 nm) to 1 (λmax 250 nm) was complete within 40 s (0.067 s^−1) under these conditions. […] Elevation of the intensity near 200 nm indicated formation of autoxidation products such as nitrite. Deaeration inhibited this peak (data not shown).
as §1

[2] = NO quantified by chemiluminescence during hydrolysis; type: physicochemical; conditions: neutral pH
Experimental: In addition to HNO measurements as described above by reductive nitrosylation of metmyoglobin, NO was quantified by chemiluminescence assay, N2O by gas chromatography, and nitrite ion by the Griess assay.
Detection of HNO was also carried out using the chemiluminescence method in, 1 mM ferricyanide solution.

[3] = Hydrolysis at pH 11 followed by NMR; type: physicochemical
Experimental: Organic products of the hydrolysis of 1 and 2 were quantified by integrating their NMR spectra. For pH 7.4, 3.9 mM solutions in 0.1 M phosphate buffer were employed. For pH 11, 4.9 mM solutions of 1 and 2 in 50 mM sodium carbonate were studied. Samples were run on a Varian Inova 400 MHz NMR with a Dell Precision 390 workstation. The samples were run at 37° C. and water suppression was achieved by using the preset pulse sequence. Peaks were identified by comparison with authentic standards.

COX-2 mRNA = test: COX mRNA levels; type: cell-based; conditions: Control 1.0
Description: PGE2 levels are a direct measure of COX-2 activity. […] Increased COX-2 expression in the presence of aspirin has been reported previously (Davies et al., Alimentary Pharm. & Ther. 11(6):1101-08 (1997))). Both DEA/NO and DEA/NO-aspirin seem to augment the effect of aspirin while IPA/NO and IPA/NO-aspirin nullifies the effect and brings it back to the control level (Table 3).

ventricular myocytes = test: Sarcomere shortening in isolated ventricular myocytes; type: cell-based, C57BL/6 male mice; conditions: 3 μM
Experimental: A stock solution of 2 in DMSO was freshly prepared prior to each experiment and stored on ice protected from the light. Liberase blendzyme 3 was purchased from Roche Diagnostics (Mannheim) while CaCl2, DMSO, and glucose were purchased from Merck (Darmstadt). Calcium-free perfusion buffer contained 113 mM NaCl, 4.7 mM KCl, 0.6 mM KH2PO4, 0.6 mM Na2HPO4, 1.2 mM MgSO4, 12 mM NaHCO3, 10 mM KHCO3, 30 mM taurine, 5.5 mM glucose, 10 mM 2,3-butanedione monoxime, and 10 mM 4-(2-hydroxyethyl)-1-piperazineethanesulfonic acid (HEPES) at pH 7.4. Digestion buffer contained an additional 0.1 mg/mL of recombinant collagenases/proteases (Liberase blendzyme 3) and 12.5 μM CaCl2. IonOptix solution for the sarcomere shortening measurements contained 135 mM NaCl, 4.7 mM KCl, 0.6 mM KH2PO4, 0.6 mM Na2HPO4, 1.2 mM MgSO4, 1.25 mM CaCl2, 20 mM glucose, and 10 mM HEPES at pH 7.46.
C57BL/6 male mice (13-15 weeks) were used in the present study. Ventricular myocytes were isolated from wild type hearts using a modified protocol of O'Connell et al., (AfCS Research Reports, 1(5): 1-9 (2003)). […] After further centrifugation, ionOptix buffer was added on the pellet and sarcomere shortening was assessed on field stimulation (1 Hz with 4-ms duration, 10 V) using a video-based sarcomere length detection system (IonOptix Corporation) at room temperature.

[4] = system: MB-231 breast cancer cell lines
Experimental: (§2) Intracellular NO/HNO release from the derivatized NSAIDs was determined using 4-amino-5-methylamino-2′,7′-difluorofluoroescein diacetate (DAF-FM diacetate) as in Example 9.

[5] = system: MB-231 breast cancer cell lines; test: DAF assay of cell membrane penetration, MB-231; conditions: MB-231 cell line
Experimental: as §2

[6] = porcine liver esterase 20 μL in 3 mL

CC(C)N[N+]([O-])=N[O-].[Na+] [Compound 1, sodium 1-(N-isopropylamino)diazen-1-ium-1,2-diolate, reference compound]
rate of decay of 1 ([1]; FIG. 3A, PBS with 50 μM DTPA, 37° C.): 0.0012 s⁻¹
hydrolysis rate relative to 2 ([1]; pH 11, more slowly than 2): 100 fold
rate of decay of 1 (porcine liver esterase; FIG. 4C, esterase present): 0.0033 s⁻¹
species produced on spontaneous hydrolysis [2]: produced both NO and HNO
hydrolysis at pH 11 ([3]; pH 11): hydrolyzed slowly
COX-2 mRNA level relative to control (COX-2 mRNA): 1.2

CC(=O)OCO/N=[N+](\[O-])NC(C)C [Compound 2, O^2-(acetoxymethyl)1-(isopropylamino)diazen-1-ium-1,2-diolate]
hydrolysis rate relative to 1 ([1]; physiological pH): an order of magnitude slower
rate of hydrolysis of 2 to 1 (porcine liver esterase; [6]): 0.067 s⁻¹
time to complete hydrolysis of 2 to 1 (porcine liver esterase; [6]): ≤ 40 s
total amount of NO detected on hydrolysis ([2]; NO-specific chemiluminescence detector): less than 1 % of theoretical yield
time to complete dissociation ([3]; 37° C., pH 11 carbonate buffer): ≤ 5 min
change in sarcomere shortening relative to baseline, versus 1 (ventricular myocytes): approximately 4 fold

CCN(CC)[N+]([O-])=N[O-].[Na+] [DEA/NO, O^2-Sodium 1-(N,N-Diethylamino)diazen-1-ium-1,2-diolate, reference compound]
COX-2 mRNA level relative to control (COX-2 mRNA): 6.0

CCN(CC)[N+]([O-])=NOCOC(=O)Cc1c(C)n(C(=O)c2ccc(Cl)cc2)c2ccc(OC)cc12 [DEA/NO-indomethacin, O^2-(methyl2-(1-(4-chlorobenzoyl)-5-methoxy-2-methyl-1H-indol-3-yl)acetate)-1-(N,N-Diethylamino)-diazen-1-ium-1,2-diolate]
cell membrane penetration [4]: penetrated cell membranes

COc1ccc2c(c1)c(CC(=O)OCON=[N+]([O-])NC(C)C)c(C)n2C(=O)c1ccc(Cl)cc1 [IPA/NO-indomethacin, O^2-(methyl2-(1-(4-chlorobenzoyl)-5-methoxy-2-methyl-1H-indol-3-yl)acetate)-1-(N-isopropylamino)-diazen-1-ium-1,2-diolate]
cell membrane penetration [4]: penetrated cell membranes

CC(C)N[N+]([O-])=NOC(=O)c1cccnc1Nc1cccc(C(F)(F)F)c1 [IPA/NO-niflumic acid, O^2-(2-(3-(trifluoromethyl)phenylamino)nicotinate)-1-(N-isopropylamino)-diazen-1-ium-1,2-diolate]
cell membrane penetration [5]: penetrated cell membranes
